One assay has as its target T1, SHP2 (Homo sapiens, UniProt Q06124).
T1 sequence (Q06124 262-528): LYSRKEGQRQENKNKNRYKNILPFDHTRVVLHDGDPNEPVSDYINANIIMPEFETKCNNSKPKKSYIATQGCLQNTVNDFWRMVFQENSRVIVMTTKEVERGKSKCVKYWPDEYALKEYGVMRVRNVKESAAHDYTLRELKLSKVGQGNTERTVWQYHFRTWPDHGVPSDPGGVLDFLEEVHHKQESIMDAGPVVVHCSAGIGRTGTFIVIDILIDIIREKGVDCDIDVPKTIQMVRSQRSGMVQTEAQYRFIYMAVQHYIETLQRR
Briefly: SHP2-catalyzed pNPP hydrolysis inhibition. Format: biochemical. The following applies: ratio of IC50 values.

A further assay concerns HEK293 cells. Briefly: EGF-stimulated ERK1/2 activation, phospho-ERK1/2 immunoblot. (In general: A western blot detects proteins with antibodies after separation by electrophoresis.)

SMILES strings stand for the structures.

For the compound `Cn1c(-c2ccccc2)c(-c2cn(CCCC(=O)Nc3ccc(-c4ccccc4)cc3)nn2)c2cc(C(=O)O)c(O)cc21` [Compound 9b, 3-(1-(4-(biphenyl-4-ylamino)-4-oxobutyl)-1H-1,2,3-triazol-4-yl)-6-hydroxy-1-methyl-2-phenyl-1H-indole-5-carboxylic acid], on SHP2, the “fold change of SHP2 IC50 relative to 9” value is ~2 fold. For the compound `Cn1c(-c2ccccc2)c(-c2cn(CCC(=O)Nc3ccc(-c4ccccc4)cc3)nn2)c2cc(C(=O)O)c(O)cc21` [Compound 9, 3-(1-(3-(biphenyl-4-ylamino)-3-oxopropyl)-1H-1,2,3-triazol-4-yl)-6-hydroxy-1-methyl-2-phenyl-1H-indole-5-carboxylic acid], the “EGF-induced ERK1/2 activation, dose dependence” value in the assay with HEK293 cells (0 to 20 μM, EGF stimulation 60 min) is on record as “concentration-dependent inhibition”. In the assay on HEK293 cells (10 μM, 3 h pre-incubation, 5-15 min post EGF 2 ng/mL), the “initial transient phase of ERK1/2 activation (phospho-ERK1/2)” value is recorded as “not the initial transient phase”. In addition, the “sustained phase of ERK1/2 activation (phospho-ERK1/2)” value in the assay with HEK293 cells (10 μM, 3 h pre-incubation, 60 min post EGF 2 ng/mL) is recorded as “strongly inhibits”. On to `Cn1c(-c2ccccc2)c(-c2cn(CCC(=O)Nc3ccccc3)nn2)c2cc(C(=O)O)c(O)cc21` [Compound 14, 6-Hydroxy-1-methyl-3-(1-(3-oxo-3-(phenylamino)propyl)-1H-1,2,3-triazol-4yl)-2-phenyl-1H-indole-5-carboxylic acid], for which the “fold change of SHP2 IC50 relative to 9” value at SHP2 is 15.6 fold. For the same compound, in the assay on HEK293 cells (20 μM, EGF stimulation 60 min), the “pERK1/2 level normalized by total ERK1/2” value is “no appreciable change”. Consider `Cn1c(-c2ccccc2)c(-c2cn(CC(=O)Nc3ccc(-c4ccccc4)cc3)nn2)c2cc(C(=O)O)c(O)cc21` [Compound 9a, 3-(1-(2-(Biphenyl-4-ylamino)-2-oxoethyl)-1H-1,2,3-triazol-4-yl)-6-hydroxy-1-methyl-2-phenyl-1H-indole-5-carboxylic acid], for which, on SHP2, the “fold change of SHP2 IC50 relative to 9” value is listed as ~2 fold.

These data come from paper PMC2842125 (Journal of medicinal chemistry, 2010).
